Measured values published in patent publication US20030129629A1, “Methods and compositions for the identification, assessment, prevention, and therapy of human cancers” (Millennium Pharmaceuticals, Inc., priority 2000, published 2003).
Read-outs that look alike come from different tables or passages of the source.

Legend:
[1] = system: 60 cancer cell lines (NCI 60 cancer cell line series); conditions: cited from earlier work
[2] = system: 60 cancer cell lines (NCI 60 cancer cell line series); test: NCI-DTP in vitro cancer screen, sulforhodamine B (SRB) growth inhibition, 48 hour exposure; assay type: cell-based, human
Outline: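 Potency is given as mean −log{GI50} from dose–response curves, manually binned into Low, Medium or High sensitivity. Sixty NCI-DTP tumour lines were treated 48 h with a duplicate, five-dose, ten-fold dilution series, and growth read by SRB staining of cell mass.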

CC[C@@]1(O)C(=O)OCc2c1cc1n(c2=O)Cc2cc3c(CN(C)C)c(O)ccc3nc2-1 [Topotecan]
−Log (GI50) ([1]; CNS SF-268 CL12014): 7.7
−Log (GI50) ([1]; Leukemia CCRF-CEM(I) CL7003): 7.9
−Log (GI50) ([1]; Leukemia MOLT-4 CL7006): 7.9
−Log (GI50) ([1]; NSCLC HOP-62 CL1026): 7.9
−Log (GI50) ([1]; NSCLC NCI-H23(I) CL1001): 7.4
−Log (GI50) ([1]; NSCLC NCI-H460 CL1021): 7.7

CS(=O)(=O)OCCCCOS(C)(=O)=O [Busulfan]
classification of cell line as Low(1), Medium(2), High(3) sensitivity to compound ([2]; Breast BT-549 CL5013): 1
classification of cell line as Low(1), Medium(2), High(3) sensitivity to compound ([2]; Breast HS-578T CL5006): 1
classification of cell line as Low(1), Medium(2), High(3) sensitivity to compound ([2]; Breast MCF7(I) CL5001): 2
classification of cell line as Low(1), Medium(2), High(3) sensitivity to compound ([2]; Breast MCF7/ADRr CL5002): 2
classification of cell line as Low(1), Medium(2), High(3) sensitivity to compound ([2]; Breast MDA-MB-231 CL5005): 1
classification of cell line as Low(1), Medium(2), High(3) sensitivity to compound ([2]; Breast MDA-MB-435 CL5011): 1
classification of cell line as Low(1), Medium(2), High(3) sensitivity to compound ([2]; Breast MDA-N CL5012): 2
classification of cell line as Low(1), Medium(2), High(3) sensitivity to compound ([2]; Breast T-47D CL5014): 1
classification of cell line as Low(1), Medium(2), High(3) sensitivity to compound ([2]; CNS SF-268 CL12014): 2
classification of cell line as Low(1), Medium(2), High(3) sensitivity to compound ([2]; CNS SF-295 CL12015): 2
classification of cell line as Low(1), Medium(2), High(3) sensitivity to compound ([2]; CNS SF-539 CL12016): 1
classification of cell line as Low(1), Medium(2), High(3) sensitivity to compound ([2]; CNS SNB-19 CL12002): 2
classification of cell line as Low(1), Medium(2), High(3) sensitivity to compound ([2]; CNS SNB-75(I) CL12005): 3
classification of cell line as Low(1), Medium(2), High(3) sensitivity to compound ([2]; CNS U251(I) CL12009): 1
classification of cell line as Low(1), Medium(2), High(3) sensitivity to compound ([2]; Colon COLO-250 CL4010): 2
classification of cell line as Low(1), Medium(2), High(3) sensitivity to compound ([2]; Colon HCC-2998 CL4002): 2
classification of cell line as Low(1), Medium(2), High(3) sensitivity to compound ([2]; Colon HCT-15 CL4015): 2
classification of cell line as Low(1), Medium(2), High(3) sensitivity to compound ([2]; Colon HCT-116 CL4003): 1
classification of cell line as Low(1), Medium(2), High(3) sensitivity to compound ([2]; Colon HT29(I) CL4001): 1
classification of cell line as Low(1), Medium(2), High(3) sensitivity to compound ([2]; Colon KM12 CL4017): 1
classification of cell line as Low(1), Medium(2), High(3) sensitivity to compound ([2]; Colon SW-620 CL4009): 2
classification of cell line as Low(1), Medium(2), High(3) sensitivity to compound ([2]; Leukemia CCRF-CEM(I) CL7003): 3
classification of cell line as Low(1), Medium(2), High(3) sensitivity to compound ([2]; Leukemia HL-60(I) CL7008): 3
classification of cell line as Low(1), Medium(2), High(3) sensitivity to compound ([2]; Leukemia K562(I) CL7005): 2
classification of cell line as Low(1), Medium(2), High(3) sensitivity to compound ([2]; Leukemia MOLT-4 CL7006): 3
classification of cell line as Low(1), Medium(2), High(3) sensitivity to compound ([2]; Leukemia RPMI-8226(I) CL7010): 1
classification of cell line as Low(1), Medium(2), High(3) sensitivity to compound ([2]; Leukemia SR CL7019): 3
classification of cell line as Low(1), Medium(2), High(3) sensitivity to compound ([2]; Melanoma LOX IMVI CL10001): 2
classification of cell line as Low(1), Medium(2), High(3) sensitivity to compound ([2]; Melanoma M14 CL10014): 1
classification of cell line as Low(1), Medium(2), High(3) sensitivity to compound ([2]; Melanoma MALME-3M CL10002): 1
classification of cell line as Low(1), Medium(2), High(3) sensitivity to compound ([2]; Melanoma SK-MEL-2 CL10005): 1
classification of cell line as Low(1), Medium(2), High(3) sensitivity to compound ([2]; Melanoma SK-MEL-5 CL10007): 2
classification of cell line as Low(1), Medium(2), High(3) sensitivity to compound ([2]; Melanoma SK-MEL-28 CL10008): 2
classification of cell line as Low(1), Medium(2), High(3) sensitivity to compound ([2]; Melanoma UACC-62 CL10020): 2
classification of cell line as Low(1), Medium(2), High(3) sensitivity to compound ([2]; Melanoma UACC-257 CL10021): 2
classification of cell line as Low(1), Medium(2), High(3) sensitivity to compound ([2]; NSCLC A549/ATCC CL1004): 2
classification of cell line as Low(1), Medium(2), High(3) sensitivity to compound ([2]; NSCLC EKVX CL1008): 2
classification of cell line as Low(1), Medium(2), High(3) sensitivity to compound ([2]; NSCLC HOP-62 CL1026): 2
classification of cell line as Low(1), Medium(2), High(3) sensitivity to compound ([2]; NSCLC HOP-92 CL1029): 2
sensitivity classification Low(1)/Medium(2)/High(3) ([2]; NSCLC NCI-H23(I) CL1001): 2
classification of cell line as Low(1), Medium(2), High(3) sensitivity to compound ([2]; NSCLC NCI-H226 CL1013): 2
sensitivity classification Low(1)/Medium(2)/High(3) ([2]; NSCLC NCI-H332M CL1017): 1
sensitivity classification Low(1)/Medium(2)/High(3) ([2]; NSCLC NCI-H460 CL1021): 3
sensitivity classification Low(1)/Medium(2)/High(3) ([2]; NSCLC NCI-H522 CL1003): 1
sensitivity classification Low(1)/Medium(2)/High(3) ([2]; Ovarian IGROV1 CL6010): 1
sensitivity classification Low(1)/Medium(2)/High(3) ([2]; Ovarian OVCAR-3 CL6001): 2
sensitivity classification Low(1)/Medium(2)/High(3) ([2]; Ovarian OVCAR-4 CL6002): 2
sensitivity classification Low(1)/Medium(2)/High(3) ([2]; Ovarian OVCAR-5 CL6003): 1
sensitivity classification Low(1)/Medium(2)/High(3) ([2]; Ovarian OVCAR-8 CL6005): 1
sensitivity classification Low(1)/Medium(2)/High(3) ([2]; Ovarian SK-OV-3 CL6011): 1
sensitivity classification Low(1)/Medium(2)/High(3) ([2]; Prostate DU-145 CL11003): 2
sensitivity classification Low(1)/Medium(2)/High(3) ([2]; Prostate PC-3(I) CL11001): 1
sensitivity classification Low(1)/Medium(2)/High(3) ([2]; Renal 786-0 CL9018): 2
sensitivity classification Low(1)/Medium(2)/High(3) ([2]; Renal A498 CL9013): 1
sensitivity classification Low(1)/Medium(2)/High(3) ([2]; Renal ACHN CL9023): 2
sensitivity classification Low(1)/Medium(2)/High(3) ([2]; Renal CAKI-1 CL9015): 3
sensitivity classification Low(1)/Medium(2)/High(3) ([2]; Renal RXF-393 CL9016): 3
sensitivity classification Low(1)/Medium(2)/High(3) ([2]; Renal SN12C CL9008): 2
sensitivity classification Low(1)/Medium(2)/High(3) ([2]; Renal TK10 CL9024): 1
sensitivity classification Low(1)/Medium(2)/High(3) ([2]; Renal UO-31 CL9004): 1
